Values quoted from earlier work as cited in patent publication US20050049268A1, “Use of at least one abl, kit and/or platelet-derived growth factor receptor tyrosine kinases inhibitor for treating hair depigmentation” (priority 2001, published 2005).

Tests used:
[1] = system: platelet-derived growth factor (PDGF) receptor tyrosine kinases; details: in vitro
[2] = target: α-PDGF receptor (Homo sapiens, UniProt P16234)
[3] = target: β-PDGF receptor (Homo sapiens, UniProt P09619)
[4] = target: c-Met (Homo sapiens, UniProt P08581)
c-Met, sequence (P08581 25-1390): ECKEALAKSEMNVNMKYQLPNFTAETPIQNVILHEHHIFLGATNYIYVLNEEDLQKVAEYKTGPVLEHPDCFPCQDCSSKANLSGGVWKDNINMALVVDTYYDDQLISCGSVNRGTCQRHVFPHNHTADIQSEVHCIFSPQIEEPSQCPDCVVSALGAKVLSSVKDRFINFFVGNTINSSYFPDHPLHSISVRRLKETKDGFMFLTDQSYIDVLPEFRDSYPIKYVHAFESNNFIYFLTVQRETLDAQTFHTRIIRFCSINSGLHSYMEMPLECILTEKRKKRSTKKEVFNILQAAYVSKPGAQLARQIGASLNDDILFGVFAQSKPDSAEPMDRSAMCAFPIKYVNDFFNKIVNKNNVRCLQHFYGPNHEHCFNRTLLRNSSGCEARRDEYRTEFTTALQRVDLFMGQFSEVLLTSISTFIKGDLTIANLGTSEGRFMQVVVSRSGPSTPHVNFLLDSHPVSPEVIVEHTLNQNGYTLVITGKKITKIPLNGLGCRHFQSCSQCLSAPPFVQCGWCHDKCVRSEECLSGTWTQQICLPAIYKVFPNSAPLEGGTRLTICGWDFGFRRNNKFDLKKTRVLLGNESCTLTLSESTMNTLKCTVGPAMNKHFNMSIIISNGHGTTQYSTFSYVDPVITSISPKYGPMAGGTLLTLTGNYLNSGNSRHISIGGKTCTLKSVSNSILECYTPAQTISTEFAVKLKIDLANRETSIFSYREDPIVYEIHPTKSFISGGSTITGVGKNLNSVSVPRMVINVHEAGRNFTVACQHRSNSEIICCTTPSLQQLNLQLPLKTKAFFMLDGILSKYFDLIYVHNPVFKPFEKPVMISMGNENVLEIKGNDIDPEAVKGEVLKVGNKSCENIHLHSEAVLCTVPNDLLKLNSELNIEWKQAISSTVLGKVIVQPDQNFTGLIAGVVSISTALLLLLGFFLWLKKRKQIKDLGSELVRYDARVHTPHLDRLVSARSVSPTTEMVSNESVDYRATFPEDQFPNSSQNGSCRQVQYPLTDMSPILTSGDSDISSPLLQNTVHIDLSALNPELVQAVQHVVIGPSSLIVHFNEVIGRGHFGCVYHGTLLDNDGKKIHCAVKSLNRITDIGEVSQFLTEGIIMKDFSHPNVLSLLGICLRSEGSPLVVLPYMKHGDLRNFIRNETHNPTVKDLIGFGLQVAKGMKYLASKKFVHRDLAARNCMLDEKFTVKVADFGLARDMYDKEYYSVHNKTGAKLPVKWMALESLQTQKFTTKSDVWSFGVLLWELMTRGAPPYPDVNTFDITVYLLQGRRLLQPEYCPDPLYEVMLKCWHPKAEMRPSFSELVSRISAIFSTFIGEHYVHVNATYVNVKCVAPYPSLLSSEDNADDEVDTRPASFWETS

[5] = target: Jak-2 (Homo sapiens, UniProt O60674)
Jak-2, sequence (O60674 whole entry, species assumed): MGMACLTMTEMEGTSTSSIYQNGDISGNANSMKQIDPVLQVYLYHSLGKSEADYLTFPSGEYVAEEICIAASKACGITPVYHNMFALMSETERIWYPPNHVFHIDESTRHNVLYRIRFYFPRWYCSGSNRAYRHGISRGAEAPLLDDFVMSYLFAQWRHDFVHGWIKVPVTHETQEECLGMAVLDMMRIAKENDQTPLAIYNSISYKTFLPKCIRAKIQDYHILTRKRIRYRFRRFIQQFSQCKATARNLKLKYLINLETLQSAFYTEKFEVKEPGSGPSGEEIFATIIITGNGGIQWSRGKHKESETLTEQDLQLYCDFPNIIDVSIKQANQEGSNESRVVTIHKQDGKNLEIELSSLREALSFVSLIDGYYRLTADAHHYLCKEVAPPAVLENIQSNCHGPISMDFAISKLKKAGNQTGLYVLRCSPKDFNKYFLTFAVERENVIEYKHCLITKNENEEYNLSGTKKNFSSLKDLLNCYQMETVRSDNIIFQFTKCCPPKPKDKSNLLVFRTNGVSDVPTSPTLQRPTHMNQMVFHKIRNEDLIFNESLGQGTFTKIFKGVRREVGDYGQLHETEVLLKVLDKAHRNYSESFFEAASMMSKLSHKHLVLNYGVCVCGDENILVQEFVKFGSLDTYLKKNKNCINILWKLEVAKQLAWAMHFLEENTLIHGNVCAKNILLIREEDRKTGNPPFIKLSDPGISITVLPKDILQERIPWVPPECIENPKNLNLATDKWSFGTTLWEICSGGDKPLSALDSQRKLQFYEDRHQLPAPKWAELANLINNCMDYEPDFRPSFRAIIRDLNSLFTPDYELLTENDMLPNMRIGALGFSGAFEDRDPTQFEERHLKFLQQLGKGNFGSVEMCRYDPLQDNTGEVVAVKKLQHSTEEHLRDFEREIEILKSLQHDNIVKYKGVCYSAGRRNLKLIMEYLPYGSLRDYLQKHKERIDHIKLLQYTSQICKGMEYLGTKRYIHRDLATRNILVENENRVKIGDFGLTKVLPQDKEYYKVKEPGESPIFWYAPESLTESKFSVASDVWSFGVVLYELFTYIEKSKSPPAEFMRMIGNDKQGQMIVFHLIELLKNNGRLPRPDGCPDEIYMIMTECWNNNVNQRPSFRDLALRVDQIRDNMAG

[6] = target: receptor for stem cell factor (Homo sapiens, UniProt P10721)
receptor for stem cell factor, sequence (P10721 26-976): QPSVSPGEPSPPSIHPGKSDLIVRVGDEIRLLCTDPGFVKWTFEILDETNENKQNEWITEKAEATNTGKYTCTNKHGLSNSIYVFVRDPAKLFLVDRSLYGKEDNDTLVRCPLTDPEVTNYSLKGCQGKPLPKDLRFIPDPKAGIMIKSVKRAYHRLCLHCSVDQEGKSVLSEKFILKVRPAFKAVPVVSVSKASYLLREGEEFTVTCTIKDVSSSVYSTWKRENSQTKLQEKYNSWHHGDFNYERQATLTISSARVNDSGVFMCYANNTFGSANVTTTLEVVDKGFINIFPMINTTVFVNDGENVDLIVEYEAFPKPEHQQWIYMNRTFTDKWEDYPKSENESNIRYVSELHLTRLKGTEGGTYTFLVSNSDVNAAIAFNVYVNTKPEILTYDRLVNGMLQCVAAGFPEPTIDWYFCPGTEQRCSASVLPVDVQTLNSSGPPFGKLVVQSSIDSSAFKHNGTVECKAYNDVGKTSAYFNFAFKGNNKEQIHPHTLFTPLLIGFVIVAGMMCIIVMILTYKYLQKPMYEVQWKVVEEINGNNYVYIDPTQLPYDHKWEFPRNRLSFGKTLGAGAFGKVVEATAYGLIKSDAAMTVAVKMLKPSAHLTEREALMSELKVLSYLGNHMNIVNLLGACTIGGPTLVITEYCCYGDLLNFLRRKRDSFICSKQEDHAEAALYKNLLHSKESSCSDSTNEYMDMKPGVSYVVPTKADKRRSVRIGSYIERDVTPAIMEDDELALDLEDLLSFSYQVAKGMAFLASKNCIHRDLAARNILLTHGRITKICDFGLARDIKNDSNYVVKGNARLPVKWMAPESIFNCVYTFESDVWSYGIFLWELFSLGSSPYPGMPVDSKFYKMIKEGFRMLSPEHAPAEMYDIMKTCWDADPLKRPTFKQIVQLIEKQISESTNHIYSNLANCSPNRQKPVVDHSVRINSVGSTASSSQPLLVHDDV

β-PDGF receptor, sequence (P09619 33-1106): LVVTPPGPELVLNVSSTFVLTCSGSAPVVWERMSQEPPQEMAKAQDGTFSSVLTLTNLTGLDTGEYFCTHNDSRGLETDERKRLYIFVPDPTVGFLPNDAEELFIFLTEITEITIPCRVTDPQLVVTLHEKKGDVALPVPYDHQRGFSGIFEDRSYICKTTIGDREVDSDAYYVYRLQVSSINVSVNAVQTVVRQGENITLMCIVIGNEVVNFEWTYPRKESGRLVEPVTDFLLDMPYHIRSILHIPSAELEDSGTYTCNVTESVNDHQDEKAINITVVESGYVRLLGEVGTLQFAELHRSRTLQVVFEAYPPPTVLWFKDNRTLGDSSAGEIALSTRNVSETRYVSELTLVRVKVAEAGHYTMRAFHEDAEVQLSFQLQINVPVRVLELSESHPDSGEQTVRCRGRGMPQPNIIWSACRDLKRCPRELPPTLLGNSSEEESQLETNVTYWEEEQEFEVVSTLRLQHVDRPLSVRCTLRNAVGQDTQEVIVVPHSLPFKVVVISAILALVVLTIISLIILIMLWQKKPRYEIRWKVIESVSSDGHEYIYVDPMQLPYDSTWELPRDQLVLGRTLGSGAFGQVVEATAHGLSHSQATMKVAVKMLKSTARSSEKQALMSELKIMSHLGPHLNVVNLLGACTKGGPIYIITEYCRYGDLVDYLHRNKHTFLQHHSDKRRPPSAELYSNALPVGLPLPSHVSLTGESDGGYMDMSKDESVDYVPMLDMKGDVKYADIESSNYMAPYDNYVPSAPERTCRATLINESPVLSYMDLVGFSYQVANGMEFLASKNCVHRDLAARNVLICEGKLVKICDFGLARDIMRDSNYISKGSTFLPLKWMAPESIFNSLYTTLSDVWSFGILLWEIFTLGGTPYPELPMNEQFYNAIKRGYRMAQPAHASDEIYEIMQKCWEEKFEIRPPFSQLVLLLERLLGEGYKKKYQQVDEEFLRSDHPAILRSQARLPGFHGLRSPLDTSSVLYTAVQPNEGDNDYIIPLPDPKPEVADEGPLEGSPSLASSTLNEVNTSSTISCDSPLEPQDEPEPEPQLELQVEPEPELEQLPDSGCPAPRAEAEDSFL

## Cc1ccc(NC(=O)c2ccc(CN3CCN(C)CC3)cc2)cc1Nc1nccc(-c2cccnc2)n1 [Imatinib, N-{5-[4-(4-methyl-piperazino-methyl)-benzoylamido]-2-methylphenyl}-4-(3-pyridyl)-2-pyrimidine-amine]
[1]
  inhibition of PDGF receptor tyrosine kinases: selectively inhibits
[2]
  inhibition of kinase activity of α-PDGF receptor: potently inhibit
[3]
  inhibition of kinase activity of β-PDGF receptor: potently inhibit
[4]
  inhibition of c-Met: no inhibition
[5]
  inhibition of Jak-2: no inhibition
[6]
  inhibition of kinase activity of the receptor for stem cell factor: potently inhibit
